Experimental data from PMC6614840 (2019).

Tests used:
[1] = system: wild-type lysC aptamer (three-strand smFRET construct LMS/1-5V2/DNA-bi) (RNA, riboswitch, internal amino modifier (N) for Cy5 between 25 and 26 of strand 2; strand 3 is a DNA tether) GCGGUGAAGAUAGAGGUGCGAACUUCAAGAGUAUGCCUUUGGAGAAAGAUGGAUUCUGUGAAAAAGGCUGAAAGGGGAGCGUCGCCGAAGCAAAUAAAACCCCAUCGGUAUUAUUUGCUGGCCGUGCAUUGAAUAAAUGUAAGGCUGUCAAGAAGCAUCGUUCAAGCGUUUUUUAUGCUUGGAAGAUAAGAA/CCGAUGCUUCUUGGAGGGCUAUCUUCACC; experiment: smFRET histograms; details: Na+ in place of K+; ligand-bound FRET state not formed efficiently
[2] = system: BPX variant (G39C) (RNA, riboswitch, internal amino modifier (N) for Cy5 between 25 and 26 of strand 2; strand 3 is a DNA tether) GCGGUGAAGAUAGACGUGCGAACUUCAAGAGUAUGCCUUUGGAGAAAGAUGGAUUCUGUGAAAAAGGCUGAAAGGGGAGCGUCGCCGAAGCAAAUAAAACCCCAUCGGUAUUAUUUGCUGGCCGUGCAUUGAAUAAAUGUAAGGCUGUCAAGAAGCAUCGUUCAAGCGUUUUUUAUGCUUGGAAGAUAAGAA/CCGAUGCUUCUUGGAGGGCUAUCUUCACC; experiment: smFRET histograms; details: ligand-bound FRET state not formed even at high Mg2+ or lysine
[3] = system: L2X variant (G72C-G76C) (RNA, riboswitch, internal amino modifier (N) for Cy5 between 25 and 26 of strand 2; strand 3 is a DNA tether) GCGGUGAAGAUAGAGGUGCGAACUUCAAGAGUAUGCCUUUGGAGAAACUACCAUUCUGUGAAAAAGGCUGAAAGGGGAGCGUCGCCGAAGCAAAUAAAACCCCAUCGGUAUUAUUUGCUGGCCGUGCAUUGAAUAAAUGUAAGGCUGUCAAGAAGCAUCGUUCAAGCGUUUUUUAUGCUUGGAAGAUAAGAA/CCGAUGCUUCUUGGAGGGCUAUCUUCACC; experiment: smFRET histograms; details: ligand-bound FRET state not formed even at high Mg2+ or lysine
[4] = system: L4X variant (A156/157C) (RNA, riboswitch, internal amino modifier (N) for Cy5 between 25 and 26 of strand 2; strand 3 is a DNA tether) GCGGUGAAGAUAGAGGUGCGAACUUCAAGAGUAUGCCUUUGGAGAAAGAUGGAUUCUGUGAAAAAGGCUGAAAGGGGAGCGUCGCCGAAGCAAAUAAAACCCCAUCGGUAUUAUUUGCUGGCCGUGCAUUGCCUAAAUGUAAGGCUGUCAAGAAGCAUCGUUCAAGCGUUUUUUAUGCUUGGAAGAUAAGAA/CCGAUGCUUCUUGGAGGGCUAUCUUCACC; experiment: smFRET histograms; details: ligand-bound FRET state not formed even at high Mg2+ or lysine
[5] = system: wild-type lysC aptamer (three-strand smFRET construct LMS/1-5V2/DNA-bi) (RNA, riboswitch, internal amino modifier (N) for Cy5 between 25 and 26 of strand 2; strand 3 is a DNA tether) GCGGUGAAGAUAGAGGUGCGAACUUCAAGAGUAUGCCUUUGGAGAAAGAUGGAUUCUGUGAAAAAGGCUGAAAGGGGAGCGUCGCCGAAGCAAAUAAAACCCCAUCGGUAUUAUUUGCUGGCCGUGCAUUGAAUAAAUGUAAGGCUGUCAAGAAGCAUCGUUCAAGCGUUUUUUAUGCUUGGAAGAUAAGAA/CCGAUGCUUCUUGGAGGGCUAUCUUCACC; experiment: smFRET kinetics, KD,fold x KD,bind; details: 100 mM K+, 2 mM Mg2+; 50 mM Tris pH 7.8; apparent
[6] = system: wild-type lysC aptamer (three-strand smFRET construct LMS/1-5V2/DNA-bi) (RNA, riboswitch, internal amino modifier (N) for Cy5 between 25 and 26 of strand 2; strand 3 is a DNA tether) GCGGUGAAGAUAGAGGUGCGAACUUCAAGAGUAUGCCUUUGGAGAAAGAUGGAUUCUGUGAAAAAGGCUGAAAGGGGAGCGUCGCCGAAGCAAAUAAAACCCCAUCGGUAUUAUUUGCUGGCCGUGCAUUGAAUAAAUGUAAGGCUGUCAAGAAGCAUCGUUCAAGCGUUUUUUAUGCUUGGAAGAUAAGAA/CCGAUGCUUCUUGGAGGGCUAUCUUCACC; experiment: smFRET histograms, global Hill fit of state occupancies; details: 50 mM Tris pH 7.8

binding [1]: weak
binding [2]: no
binding [3]: no
binding [4]: no
KD, app [5]: 11 ± 7 µM
KD ([6]; 100 mM K+, 2 mM Mg2+, Figure 4 legend prints 4.5 ± 1 μM): 3 ± 1 µM
KD ([6]; no K+, 10 mM Mg2+, Hill coefficient 1.1 ± 0.2): 850 ± 35 µM
SMILES: NCCCC[C@H](N)C(=O)O
